Results published in ChEMBL document CHEMBL3885861, “Open TG-GATES”.

Species: Rattus norvegicus
Assay: Open TG-GATES - Regimen: Single
Assay type: toxicity, organism-based, Sprague-Dawley
Set-up: regimen Single, gender Male, age 6 weeks
Details: in vivo, po, 15 mg/kg, route gavage, dose level Low; for KIDNEY_L / KIDNEY_R / KIDNEY_TOTAL: tissue Kidney

Oc1ncnc2[nH]ncc12 [ALLOPURINOL]
APTT (3 h, tissue Blood): 16.3 s | Bas (3 h, tissue Blood): 0% | Eos (3 h, tissue Blood): 1% | Fbg (3 h, tissue Blood): 209.6 mg/dL | Hb (3 h, tissue Blood): 13.9 g/dL | Ht (3 h, tissue Blood): 41.2% | Lym (3 h, tissue Blood): 80.4% | MCH (3 h, tissue Blood): 22 pg | MCHC (3 h, tissue Blood): 33.8% | MCV (3 h, tissue Blood): 65 fL | Mono (3 h, tissue Blood): 7.4% | Neu (3 h, tissue Blood): 11.2% | PT (3 h, tissue Blood): 12.5 s | RBC (3 h, tissue Blood): 636 x10_4/ul | Ret (3 h, tissue Blood): 8.4% | WBC (3 h, tissue Blood): 99.2 x10_2/uL | KIDNEY_L (3 h): 1 g | KIDNEY_R (3 h): 1 g | KIDNEY_TOTAL (3 h): 2 g | ALP (3 h, tissue Plasma): 884.4 IU/L | ALT (3 h, tissue Plasma): 35.4 IU/L | AST (3 h, tissue Plasma): 64.4 IU/L | BUN (3 h, tissue Plasma): 12.4 mg/dL | CRE (3 h, tissue Plasma): 0.5 mg/dL | Ca (3 h, tissue Plasma): 11.3 mg/dL | DBIL (3 h, tissue Plasma): 0.086 mg/dL | GLC (3 h, tissue Plasma): 183.8 mg/dL | K (3 h, tissue Plasma): 4.9 meq/L | LDH (3 h, tissue Plasma): 115.4 IU/L | Na (3 h, tissue Plasma): 139.2 meq/L | PL (3 h, tissue Plasma): 132.8 mg/dL | RALB (3 h, tissue Plasma): 3.7 g/dL | TBIL (3 h, tissue Plasma): 0.4 mg/dL | TC (3 h, tissue Plasma): 73.4 mg/dL | TG (3 h, tissue Plasma): 54.6 mg/dL | TP (3 h, tissue Plasma): 5.5 g/dL | gamma-GTP (3 h, tissue Plasma): 1.6 IU/L | TERMINAL_BW (6 h): 209.5 g | APTT (6 h, tissue Blood): 16.8 s | Bas (6 h, tissue Blood): 0% | Eos (6 h, tissue Blood): 0.4% | Fbg (6 h, tissue Blood): 206.8 mg/dL | Hb (6 h, tissue Blood): 13.6 g/dL | Ht (6 h, tissue Blood): 40.5% | Lym (6 h, tissue Blood): 79% | MCH (6 h, tissue Blood): 21.8 pg | MCHC (6 h, tissue Blood): 33.5% | MCV (6 h, tissue Blood): 65.3 fL | Mono (6 h, tissue Blood): 6.2% | Neu (6 h, tissue Blood): 14.2% | PT (6 h, tissue Blood): 12.4 s | Plat (6 h, tissue Blood): 109.1 x10_4/uL | RBC (6 h, tissue Blood): 620.2 x10_4/ul | Ret (6 h, tissue Blood): 8.1% | WBC (6 h, tissue Blood): 101.3 x10_2/uL | KIDNEY_L (6 h): 1 g | KIDNEY_R (6 h): 1 g | KIDNEY_TOTAL (6 h): 2 g | LIVER (6 h, tissue Liver): 9.6 g | ALP (6 h, tissue Plasma): 695 IU/L | ALT (6 h, tissue Plasma): 30 IU/L | AST (6 h, tissue Plasma): 58 IU/L | BUN (6 h, tissue Plasma): 11 mg/dL | CRE (6 h, tissue Plasma): 0.5 mg/dL | Ca (6 h, tissue Plasma): 11.4 mg/dL | DBIL (6 h, tissue Plasma): 0.024 mg/dL | GLC (6 h, tissue Plasma): 187 mg/dL | IP (6 h, tissue Plasma): 10.1 mg/dL | K (6 h, tissue Plasma): 4.8 meq/L | LDH (6 h, tissue Plasma): 74.8 IU/L | Na (6 h, tissue Plasma): 138.4 meq/L | PL (6 h, tissue Plasma): 126.6 mg/dL | RALB (6 h, tissue Plasma): 3.7 g/dL | TBIL (6 h, tissue Plasma): 0.3 mg/dL | TC (6 h, tissue Plasma): 67.6 mg/dL | TG (6 h, tissue Plasma): 60.8 mg/dL | TP (6 h, tissue Plasma): 5.5 g/dL | gamma-GTP (6 h, tissue Plasma): 1 IU/L | TERMINAL_BW (9 h): 204 g
